Laboratory results published in patent publication US20250171438A1 (Agios Pharmaceuticals, Inc., priority 2022, published 2025).

Each compound was assayed against T1, human PAH with the R408W mutation (Homo sapiens, UniProt P00439, R408W) (assay: Cell Based Phenylalanine Flux Assay). Settings: A375 cells expressing human R408W PAH; 24 hrs compound incubation; 13C-Tyrosine by LC-MS; average where tested multiple times; read-out: AC50.
T1 construct: expressed in transfected cells
T1 sequence (P00439 1-452 R408W): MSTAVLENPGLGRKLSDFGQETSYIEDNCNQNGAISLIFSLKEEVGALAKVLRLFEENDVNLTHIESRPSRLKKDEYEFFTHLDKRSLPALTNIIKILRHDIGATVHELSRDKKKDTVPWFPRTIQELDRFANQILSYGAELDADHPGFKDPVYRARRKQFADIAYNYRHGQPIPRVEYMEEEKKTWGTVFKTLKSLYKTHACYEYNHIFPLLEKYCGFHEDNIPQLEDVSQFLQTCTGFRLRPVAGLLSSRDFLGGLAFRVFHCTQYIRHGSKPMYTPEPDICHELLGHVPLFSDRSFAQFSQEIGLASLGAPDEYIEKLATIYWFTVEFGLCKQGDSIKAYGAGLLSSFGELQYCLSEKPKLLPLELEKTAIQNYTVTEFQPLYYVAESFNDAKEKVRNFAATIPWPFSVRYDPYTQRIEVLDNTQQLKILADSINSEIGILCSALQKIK

Compound	AC50 [nM]
O=C(c1ocnc1CF)N1CCc2[nH]cnc2[C@H]1c1nc2c(F)cccc2s1 [Example 2041, (S)-(4-(4-fluorobenzo[d]thiazol-2-yl)-6,7-dihydro-1H-imidazo[4,5-c]pyridin-5(4H)-yl)(4-(fluoromethyl)oxazol-5-yl)methanone]	< 500
O=C(c1n[nH]c2ccccc12)N1CCc2[nH]cnc2[C@H]1c1nc2ccccc2s1 [Example 1049]	500 to 1000
O=C(c1nnc(-c2ccn(C(F)F)n2)o1)N1CCc2[nH]cnc2[C@@H]1c1nc2c(F)cccc2s1 [Example 1887, (R)-(5-(1-(difluoromethyl)-1H-pyrazol-3-yl)-1,3,4-oxadiazol-2-yl)(4-(4-fluorobenzo[d]thiazol-2-yl)-6,7-dihydro-1H-imidazo[4,5-c]pyridin-5(4H)-yl)methanone]	1000 to 5000
O=C(c1ocnc1-c1ccccc1)N1CCc2[nH]cnc2[C@H]1c1nc2c(F)cccc2s1 [Example 2177, (S)-(4-(4-fluorobenzo[d]thiazol-2-yl)-6,7-dihydro-1H-imidazo[4,5-c]pyridin-5(4H)-yl)(4-phenyloxazol-5-yl)methanone]	500 to 1000
O=C(N1CCc2[nH]cnc2[C@@H]1c1nc2ccccc2s1)C1(CF)CC1 [Example 1256, (R)-(4-(benzo[d]thiazol-2-yl)-6,7-dihydro-1H-imidazo[4,5-c]pyridin-5(4H)-yl)(1-(fluoromethyl)cyclopropyl)methanone]	> 5000
Cc1cc(-c2nnc(C(=O)N3CCc4[nH]cnc4[C@@H]3c3nc4ccccc4s3)o2)nn1C [Example 1943, (R)-(4-(benzo[d]thiazol-2-yl)-6,7-dihydro-1H-imidazo[4,5-c]pyridin-5(4H)-yl)(5-(1,5-dimethyl-1H-pyrazol-3-yl)-1,3,4-oxadiazol-2-yl)methanone]	1000 to 5000
Cc1nn(C)cc1-c1ncc(C(=O)N2CCc3[nH]cnc3[C@@H]2c2nc3ccccc3s2)s1 [Example 1380, (R)-(4-(benzo[d]thiazol-2-yl)-6,7-dihydro-1H-imidazo[4,5-c]pyridin-5(4H)-yl)(2-(1,3-dimethyl-1H-pyrazol-4-yl)thiazol-5-yl)methanone]	1000 to 5000
Cc1nnc(C(=O)N2CCc3[nH]cnc3[C@H]2c2nc3ccccc3s2)s1 [Example 1041]	1000 to 5000
Cc1c(-c2ncc(C(=O)N3CCc4[nH]cnc4[C@H]3c3nc4ccccc4s3)o2)cnn1C [Example 1383]	< 500
O=C(c1nnc(-c2ccccn2)o1)N1CC2(CC2)c2[nH]cnc2[C@H]1c1nc2ccccc2s1 [Example 1684, (S)-(4′-(benzo[d]thiazol-2-yl)spiro[cyclopropane-1,7′-imidazo[4,5-c]pyridin]-5′(1′H,4′H,6′H)-yl)(5-(pyridin-2-yl)-1,3,4-oxadiazol-2-yl)methanone]	< 500
O=C(c1oc(NC2CC2)nc1C(F)(F)F)N1CCc2[nH]cnc2[C@@H]1c1nc2ccccc2s1 [Example 1560, (R)-(4-(benzo[d]thiazol-2-yl)-6,7-dihydro-1H-imidazo[4,5-c]pyridin-5(4H)-yl)(2-(cyclopropylamino)-4-(trifluoromethyl)oxazol-5-yl)methanone]	< 500
(R)-2-((4-(6-fluoro-1H-benzo[d]imidazol-2-yl)-6,7-dihydro-1H-imidazo[4,5-c]pyridin-5(4H)-yl)methyl)thiazole [Example 972]	> 5000
c1ccc2sc([C@@H]3c4nc[nH]c4CCN3Cc3nccs3)nc2c1 [Example 1139, (S)-2-(5-(thiazol-2-ylmethyl)-4,5,6,7-tetrahydro-1H-imidazo[4,5-c]pyridin-4-yl)benzo[d]thiazole]	500 to 1000
CN1CCN(c2nc(C(F)(F)F)c(C(=O)N3CCc4[nH]cnc4[C@H]3c3nc4ccccc4s3)o2)CC1 [Example 1573]	< 500
Cc1nnc(CCC(=O)N2CCc3[nH]cnc3[C@@H]2c2nc3ccccc3s2)s1 [Example 1020, (R)-1-(4-(benzo[d]thiazol-2-yl)-6,7-dihydro-1H-imidazo[4,5-c]pyridin-5(4H)-yl)-3-(5-methyl-1,3,4-thiadiazol-2-yl)propan-1-one]	> 5000
Cn1nc(C(F)F)cc1C(=O)N1CCc2[nH]cnc2[C@H]1c1nc2c(F)cccc2s1 [Example 1731, (S)-(3-(difluoromethyl)-1-methyl-1H-pyrazol-5-yl)(4-(4-fluorobenzo[d]thiazol-2-yl)-6,7-dihydro-1H-imidazo[4,5-c]pyridin-5(4H)-yl)methanone]	< 500
O=C(c1cnn(CC2CC2)c1Cl)N1CCc2[nH]cnc2[C@H]1c1nc2c(F)cccc2s1 [Example 1971, (S)-(5-chloro-1-(cyclopropylmethyl)-1H-pyrazol-4-yl)(4-(4-fluorobenzo[d]thiazol-2-yl)-6,7-dihydro-1H-imidazo[4,5-c]pyridin-5(4H)-yl)methanone]	500 to 1000
O=C(CC1CC1(F)F)N1CCc2[nH]cnc2[C@H]1c1nc2ccccc2s1 (single isomer, unassigned) [Example 1271]	< 500
O=C(c1ccnn1-c1ccccc1)N1CCc2[nH]cnc2[C@H]1c1nc2c(F)cccc2s1 [Example 1605]	500 to 1000
CC(C)(C)c1ncc(C(=O)N2CCc3[nH]cnc3[C@H]2c2nc3ccccc3s2)s1 [Example 1421]	< 500
O=C(c1nc(Cl)cs1)N1CCc2[nH]cnc2[C@@H]1c1nc2cc(F)ccc2s1 [Example 1298, (R)-(4-chlorothiazol-2-yl)(4-(5-fluorobenzo[d]thiazol-2-yl)-6,7-dihydro-1H-imidazo[4,5-c]pyridin-5(4H)-yl)methanone]	1000 to 5000
Cc1nc([C@@H](C)O)oc1C(=O)N1CCc2[nH]cnc2[C@H]1c1nc2c(F)cccc2s1 [Example 1929, ((S)-4-(4-fluorobenzo[d]thiazol-2-yl)-6,7-dihydro-1H-imidazo[4,5-c]pyridin-5(4H)-yl)(2-((R)-1-hydroxyethyl)-4-methyloxazol-5-yl)methanone]	500 to 1000
O=C(c1cnn2ccc(Br)cc12)N1CCc2[nH]cnc2[C@H]1c1nc2cc(F)ccc2s1 [Example 1281]	500 to 1000
O=C(CCc1nccs1)N1CCc2[nH]cnc2[C@@H]1c1nc(-c2ccccc2)cs1 [Example 2144, (R)-1-(4-(4-phenylthiazol-2-yl)-6,7-dihydro-1H-imidazo[4,5-c]pyridin-5(4H)-yl)-3-(thiazol-2-yl)propan-1-one]	> 5000
CC(C)(O)c1nnc(C(=O)N2CCc3[nH]cnc3[C@H]2c2nc3ccccc3s2)o1 [Example 1508]	1000 to 5000
Cn1nc(C(F)F)nc1C(=O)N1CCc2[nH]cnc2[C@H]1c1nc2ccccc2s1 [Example 2171]	1000 to 5000
Cn1ncc(Cl)c1C(=O)N1CCc2[nH]cnc2[C@@H]1c1nc2c(F)cccc2s1 [Example 1734, (R)-(4-chloro-1-methyl-1H-pyrazol-5-yl)(4-(4-fluorobenzo[d]thiazol-2-yl)-6,7-dihydro-1H-imidazo[4,5-c]pyridin-5(4H)-yl)methanone]	500 to 1000
O=C(c1cnc(NC2CC2)s1)N1CCc2[nH]cnc2[C@@H]1c1nc2ccccc2s1 [Example 1184, (R)-(4-(benzo[d]thiazol-2-yl)-6,7-dihydro-1H-imidazo[4,5-c]pyridin-5(4H)-yl)(2-(cyclopropylamino)thiazol-5-yl)methanone]	1000 to 5000
Cc1nc(C(F)(F)F)oc1C(=O)N1CCc2[nH]cnc2[C@@H]1c1nc2ccccc2s1 [Example 1394, (R)-(4-(benzo[d]thiazol-2-yl)-6,7-dihydro-1H-imidazo[4,5-c]pyridin-5(4H)-yl)(4-methyl-2-(trifluoromethyl)oxazol-5-yl)methanone]	1000 to 5000
CN(C)c1nnc(C(=O)N2CCc3[nH]cnc3[C@@H]2c2nc3ccccc3s2)o1 [Example 1610, (R)-(4-(benzo[d]thiazol-2-yl)-6,7-dihydro-1H-imidazo[4,5-c]pyridin-5(4H)-yl)(5-(dimethylamino)-1,3,4-oxadiazol-2-yl)methanone]	1000 to 5000

Same assay, conditions: A375 cells expressing human R408W PAH; 24 hrs with compound; 13C-Tyrosine by LC-MS; average where tested multiple times; read-out: AC50

Compound	AC50 [nM]
O=C(c1nnc(CCCN2CCOCC2)o1)N1CCc2[nH]cnc2C1c1nc2ccccc2s1 (stereo not drawn)	1000 to 5000
O=C(c1nnc(CCN2CCOCC2)o1)N1CCc2[nH]cnc2C1c1nc2ccccc2s1 (stereo not drawn)	1000 to 5000
O=C(c1cnn2cc(Cl)ccc12)N1CCc2[nH]cnc2[C@H]1c1nc2ccc(Br)cc2[nH]1 (single isomer, unassigned)	1000 to 5000
Cc1ncsc1C(=O)N1CCc2[nH]cnc2C1c1nc2ccccc2s1 (stereo not drawn)	> 5000
COCc1cc(C(=O)N2CCc3[nH]cnc3C2c2nc3c(F)cccc3s2)n(C)n1 (stereo not drawn)	1000 to 5000
O=C(Cn1cncn1)N1CCc2[nH]cnc2[C@H]1c1nc2ccccc2[nH]1 [(S)-1-(4-(1H-benzo[d]imidazol-2-yl)-6,7-dihydro-1H-imidazo[4,5-c]pyridin-5(4H)-yl)-2-(1H-1,2,4-triazol-1-yl)ethanone]	> 5000
CC(=O)Cn1cc(C(=O)N2CCc3[nH]cnc3C2c2nc3c(F)cccc3s2)cn1 (stereo not drawn)	1000 to 5000
O=C(c1cncs1)N1CCc2[nH]cnc2C1c1nc2ccc(F)cc2s1 (stereo not drawn)	1000 to 5000
N#Cc1nc(NCC(F)(F)F)oc1C(=O)N1CCc2[nH]cnc2C1c1nc2ccccc2s1 (stereo not drawn)	> 5000
CC(C)(C)CCC(=O)N1CCc2[nH]cnc2C1c1nc2cc(F)ccc2s1 (stereo not drawn)	1000 to 5000
O=C(Cc1nncs1)N1CCc2[nH]cnc2[C@H]1c1nc2c(F)cccc2s1 (single isomer, unassigned)	1000 to 5000
CN(C)Cc1ccc2c(C(=O)N3CC4(CC4)c4[nH]cnc4C3c3nc4ccccc4s3)cnn2c1 (stereo not drawn)	1000 to 5000
